Four compounds from patent US20040259815A1, “Anti-proliferative composition” (priority 2001, published 2004) can be followed below.

This test relates to human prostate cancer cell line PC3. Put plainly: Proliferation of PC3 cells after 4 days exposure (BrdU incorporation and WST-1 assays). The test is classed as cell-based. The note with it: PC-3, 96 h, component alone, PC3 cells exposed for 4 days.

Procedure: Stock solutions were prepared as follows: Genistein and silymarin were dissolved in ethanol. Daidzein and equol were dissolved in dimethyl sulfoxide (DMSO). Lycopene was dissolved in 0.02M HCl
The PC3 cell line (American Type Culture Collection, Mannassas, USA), a highly resistant prostate cancer cell line originating from a metastasis lesion of bone, was maintained as monolayer cultures in RPMI medium (Gibco, Life technologies BV, Breda, Netherlands) supplemented with 5% FCS (Gibco). The cells were grown mycoplasm free in plastic tissue culture flasks (Falcon, Micronic, Lelystad, Netherlands). Cultures were kept in a 5% CO2 humidified atmosphere, at a temperature of 37° C. Media were replaced every 2 or 3 days, and cells were subcultured at weekly intervals using a 0.05% trypsin and 0.01% EDTA.
The PC3 cells were seeded into flat-bottomed 96-well tissue culture treated plates (Falcon, Micronic, Lelystad, Netherlands) at a density of 16000 cells per well. After 24 h incubation, vehicle controls, test components or combinations of the test components were added to the medium (20 μl added to 200 μl medium in well). The components were tested in combination to determine additional or synergistic effects. PC3 cells were exposed for 4 days.
Cell proliferation was quantified by measuring the incorporation of 5-bromo-2′-deoxyuridine (BrdU) during DNA synthesis and by cleavage of tetrazolium salt (WST-1) in viable cells by mitochondrial dehydrogenases. The calorimetric BrdU (immunoassay) and colorimetric WST-1 assay were performed in accordance with the manufacturer's instructions (Roche Diagnostics Mannheim, Germany). Briefly, BrdU-assay: After the exposure period, the cells were treated with BrdU-labeling solution for 3 hours. After labeling, cells were washed with PBS, fixed for 30 minutes and washed again with PBS. After 90 minutes incubation with the anti-BrdU-POD working solution, the cells were washed 3 times. After addition of the substrate, the reaction was stopped with H2SO4. The absorbance was measured at 450 nm with a reference wavelength at 650 nm. WST-1 assay: After the exposure period, the cells were washed with PBS and treated with WST-1 diluted in medium (1:10). After 3 hours incubation, the absorbance was measured at 450 nm with a reference at 595 nm.

On to `O=c1c(-c2ccc(O)cc2)coc2cc(O)cc(O)c12` [Genistein, genistein], for which, under “27 μg/ml, read-out: inhibition of proliferation of human prostate cancer cell line PC3 (mean±s.e.)”, the inhibition at 27 µg/mL turned out to be 20.2 ± 4.6%.

On to `O=c1c(-c2ccc(O)cc2)coc2cc(O)ccc12` [daidzein], for which the inhibition at 25 µg/mL (25 μg/ml, stated as not significant, read-out: inhibition of growth of the PC3 cells) is 10 ± 6%.

Consider `Oc1ccc([C@H]2COc3cc(O)ccc3C2)cc1` [equol], for which, where the note is “26 μg/ml, read-out: inhibition of proliferation of human prostate cancer cell line PC3 (mean±s.e.)”, the inhibition at 26 µg/mL was determined as 30.1 ± 4.4%.

For the compound `CC(C)=CCC/C(C)=C/C=C/C(C)=C/C=C/C(C)=C/C=C/C=C(C)/C=C/C=C(C)/C=C/C=C(\C)CCC=C(C)C` [lycopene], the inhibition at 53 µg/mL (53 μg/ml, stated as not significant, read-out: inhibition of growth of the PC3 cells) was 7.3 ± 2.7%.
